Patent US12121514B2, “Nonselective metabotropic glutamate receptor activators for treatment of attention deficit disorder and 22Q syndrome” (THE CHILDREN'S HOSPITAL OF PHILADELPHIA, priority 2015, dated 2024)

System: adolescent subjects with ADHD and at least one genetic alteration in an mGluR network gene
Assay: Vanderbilt ADHD score (items 1-18, parent), Phase Ib trial of NFC-1
Type: in vivo, human
Details: relative to pre-study (enrollment) baseline
Description: The Vanderbilt Rating Scale is a measure that can be completed by parents or teachers (separate forms, see Vanderbilt Rating Scale Parents and Vanderbilt Rating Scale Teachers). The Vanderbilt scale rates the child's behavior on items such as attention, finishing tasks, hyperactivity, difficulty waiting, and measures of conduct or oppositional defiant disorders—as well as measures of overall school performance and interactions with others. The first 18 items on the Vanderbilt scale correspond to those of the ADHD Rating Scale IV above while the Vanderbilt scale also includes items 19-47 related to other mental disorders including ODD (items 19-26), conduct disorder (items 27-40), anxiety (items 41, 42, and 47), and depression (items 43-46). Each of the behavioral assessment items on the Vanderbilt Scale are rated 0, 1, 2, or 3, with 0=never occurring; 1=occasionally, 2=often, and 3=very often. Thus, the ADHD Rating Scale IV, ADHD Rating Scale V, and items 1-18 of the Vanderbilt Rating Scale are equivalent scales, while additional items on the Vanderbilt Scale assess co-morbid phenotypes and disorders.
Each of the items are rated on a scale of 0, 1, 2, or 3, with 0=never; 1=occasionally, 2=often, and 3=very often. A total score of 0 to 54 is computed based on the answers to the 18 questions.
As used herein an “ADHD rating scale score,” “ADHD score” or “Vanderbilt ADHD score” are used interchangeably to refer to the computed score of the 18 items of the ADHD Rating Scale IV or V or the first 18 items of the Vanderbilt Rating Scale in any of their associated versions, e.g., for parent, teacher, or clinician to complete, and for a pediatric subject or adult subject. Clinical trials may assess the impact of drug or placebo on the ADHD score or Vanderbilt ADHD score (i.e. the score of 0 to 54 based on the first 18 items in the ADHD or Vanderbilt rating scale). In some cases, results of a clinical trial population may be analyzed by comparing the average score or a percentage change in score over time of administration of drug.
An open-label Phase Ib clinical trial was initiated to investigate the safety, pharmacokinetics and efficacy of NFC-1 (fasoracetam monohydrate) in adolescent subjects between the ages of 12 and 17 previously diagnosed with ADHD who also had at least one genetic alteration in an mGluR network gene.
Dose-escalation phase of the trial followed the PK and initial safety assessment and ran over a 5-week period. During week 1, all subjects were administered placebo capsules twice daily. After one week of placebo treatment, patients were started on 50 mg bid NFC-1 for 1 week. If safety and responsiveness data from prior dose level of fasoracetam indicated it was appropriate, subjects were then escalated to the next higher dose (100, 200, or 400 mg). […] Of the 30 trial subjects, 3 received a maximum dose of 100 mg, 9 received a maximum dose of 200 mg, and the remaining 18 received a maximum dose of 400 mg.
All efficacy assessments, except actigraphy, were made at study enrollment (“enrollment baseline”) and again, including actigraphy, once-per-week for the placebo week (“week 1” or “placebo baseline”) and at each of the 4 weeks of NFC-1 treatment. These efficacy measures include items 1-18 of the Vanderbilt scale assessing symptoms related to inattentiveness and hyperactivity-impulsiveness as well as additional questions 19-47 of the Vanderbilt scale assessing other behavioral symptoms (conducted by parent), actigraphy for quantitative measurement of activity, Quotient® ADHD test for objective measurement of micro-motion and shifts in attention state, PERMP-Math test, and CGI-I and CGI-S for assessment of global functioning. […]

[1] = Tier 1, Week 5, up to 400 mg bid
[2] = Tier 2, Week 3, up to 100 mg bid
[3] = Tier 2, Week 4, up to 200 mg bid
[4] = Tier 2, Week 5, up to 400 mg bid
[5] = Tier 3, Week 3, up to 100 mg bid
[6] = Tier 3, Week 4, up to 200 mg bid
[7] = Tier 3, Week 5, up to 400 mg bid

## O=C1CC[C@H](C(=O)N2CCCCC2)N1 [NFC-1, fasoracetam monohydrate]
Tier 1, Week 4, up to 200 mg bid
  Percent of subjects with improvement in Vanderbilt ADHD score (at least 25% decrease): 88%
Tier 1, Week 5, 400 mg bid
  Percent of subjects completing the dose escalation to 400 mg bid that show improvement in Vanderbilt ADHD scores (at least 25% decrease): 89%
  Percent of subjects completing the dose escalation to 400 mg bid that show robust improvement in Vanderbilt ADHD scores (at least 40% decrease): 67%
[1]
  Percent of subjects demonstrating robust improvement in Vanderbilt ADHD score (at least 40% decrease): 63%
  Percent of subjects with improvement in Vanderbilt ADHD score (at least 25% decrease): 75%
Tier 2, Week 2, 50 mg bid
  Percent of subjects completing the dose escalation to 400 mg bid that show improvement in Vanderbilt ADHD scores (at least 25% decrease): 20%
  Percent of subjects completing the dose escalation to 400 mg bid that show robust improvement in Vanderbilt ADHD scores (at least 40% decrease): 20%
  Percent of subjects demonstrating robust improvement in Vanderbilt ADHD score (at least 40% decrease): 14%
  Percent of subjects with improvement in Vanderbilt ADHD score (at least 25% decrease): 29%
Tier 2, Week 3, 100 mg bid
  Percent of subjects completing the dose escalation to 400 mg bid that show improvement in Vanderbilt ADHD scores (at least 25% decrease): 20%
  Percent of subjects completing the dose escalation to 400 mg bid that show robust improvement in Vanderbilt ADHD scores (at least 40% decrease): 0%
[2]
  Percent of subjects demonstrating robust improvement in Vanderbilt ADHD score (at least 40% decrease): 0%
  Percent of subjects with improvement in Vanderbilt ADHD score (at least 25% decrease): 14%
Tier 2, Week 4, 200 mg bid
  Percent of subjects completing the dose escalation to 400 mg bid that show improvement in Vanderbilt ADHD scores (at least 25% decrease): 20%
  Percent of subjects completing the dose escalation to 400 mg bid that show robust improvement in Vanderbilt ADHD scores (at least 40% decrease): 20%
[3]
  Percent of subjects demonstrating robust improvement in Vanderbilt ADHD score (at least 40% decrease): 14%
  Percent of subjects with improvement in Vanderbilt ADHD score (at least 25% decrease): 43%
Tier 2, Week 5, 400 mg bid
  Percent of subjects completing the dose escalation to 400 mg bid that show improvement in Vanderbilt ADHD scores (at least 25% decrease): 80%
  Percent of subjects completing the dose escalation to 400 mg bid that show robust improvement in Vanderbilt ADHD scores (at least 40% decrease): 20%
[4]
  Percent of subjects demonstrating robust improvement in Vanderbilt ADHD score (at least 40% decrease): 29%
  Percent of subjects with improvement in Vanderbilt ADHD score (at least 25% decrease): 86%
Tier 3, Week 2, 50 mg bid
  Percent of subjects completing the dose escalation to 400 mg bid that show improvement in Vanderbilt ADHD scores (at least 25% decrease): 33%
  Percent of subjects completing the dose escalation to 400 mg bid that show robust improvement in Vanderbilt ADHD scores (at least 40% decrease): 33%
  Percent of subjects demonstrating robust improvement in Vanderbilt ADHD score (at least 40% decrease): 50%
  Percent of subjects with improvement in Vanderbilt ADHD score (at least 25% decrease): 50%
Tier 3, Week 3, 100 mg bid
  Percent of subjects completing the dose escalation to 400 mg bid that show improvement in Vanderbilt ADHD scores (at least 25% decrease): 0%
  Percent of subjects completing the dose escalation to 400 mg bid that show robust improvement in Vanderbilt ADHD scores (at least 40% decrease): 0%
[5]
  Percent of subjects demonstrating robust improvement in Vanderbilt ADHD score (at least 40% decrease): 40%
  Percent of subjects with improvement in Vanderbilt ADHD score (at least 25% decrease): 40%
Tier 3, Week 4, 200 mg bid
  Percent of subjects completing the dose escalation to 400 mg bid that show improvement in Vanderbilt ADHD scores (at least 25% decrease): 0%
  Percent of subjects completing the dose escalation to 400 mg bid that show robust improvement in Vanderbilt ADHD scores (at least 40% decrease): 0%
[6]
  Percent of subjects demonstrating robust improvement in Vanderbilt ADHD score (at least 40% decrease): 40%
  Percent of subjects with improvement in Vanderbilt ADHD score (at least 25% decrease): 40%
Tier 3, Week 5, 400 mg bid
  Percent of subjects completing the dose escalation to 400 mg bid that show improvement in Vanderbilt ADHD scores (at least 25% decrease): 67%
  Percent of subjects completing the dose escalation to 400 mg bid that show robust improvement in Vanderbilt ADHD scores (at least 40% decrease): 33%
[7]
  Percent of subjects demonstrating robust improvement in Vanderbilt ADHD score (at least 40% decrease): 50%
  Percent of subjects with improvement in Vanderbilt ADHD score (at least 25% decrease): 75%
